How the values were obtained:
[1] = target: T1, Human CD73 (amino acid residues 27-549) (Homo sapiens, UniProt P21589); assay: CD73 enzymatic assay (luciferase-based indirect assay, CellTiter-Glo); type: biochemical; details: 0.4 nM CD73, 150 μM AMP, 1 hour at room temperature
T1 construct: Human CD73 (amino acid residues 27-549); His tag (N); made in house; host or cells: E. coli
T1 sequence (P21589 27-549): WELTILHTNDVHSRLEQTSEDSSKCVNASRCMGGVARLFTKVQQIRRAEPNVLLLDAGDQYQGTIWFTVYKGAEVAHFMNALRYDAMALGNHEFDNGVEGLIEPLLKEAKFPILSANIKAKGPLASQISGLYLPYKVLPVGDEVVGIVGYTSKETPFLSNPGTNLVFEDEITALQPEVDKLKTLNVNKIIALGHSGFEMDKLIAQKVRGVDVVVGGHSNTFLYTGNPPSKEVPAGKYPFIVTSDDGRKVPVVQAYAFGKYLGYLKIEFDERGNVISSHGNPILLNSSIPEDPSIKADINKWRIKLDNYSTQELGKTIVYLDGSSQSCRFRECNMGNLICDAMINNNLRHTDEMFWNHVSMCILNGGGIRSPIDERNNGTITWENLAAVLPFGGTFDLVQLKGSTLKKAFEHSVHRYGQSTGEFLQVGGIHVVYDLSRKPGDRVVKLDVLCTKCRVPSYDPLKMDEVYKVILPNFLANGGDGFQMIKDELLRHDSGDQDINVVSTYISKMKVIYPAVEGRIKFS
Experimental: CD73 enzymatic activity was measured in a luciferase-based indirect assay using CellTiter-Glo® system from Promega. The luciferase reaction in the presence of ATP is inhibited by AMP, a primary substrate of CD73. Addition of CD73 enzyme to the reaction converts AMP to adenosine, and release the inhibition, producing a luminescent signal. Inhibition of CD73 leads to the decrease of this luminescent signal.
Human CD73 (amino acid residues 27-549) with N-Terminal His tag was purified in E. coli. All the assay components were prepared in 50 mM HEPEs buffer (pH 7.4) with 0.01% Tween® 20. The CD73 enzymatic assay was performed using 0.4 nM CD73 and 150 μM AMP. 9.5 μL of CD73 protein and 9.5 μL of AMP were added to the wells of a 384 well plate containing 1 μL of various concentrations of test compound or DMSO vehicle and incubated for 1 hour at room temperature. 16 wells containing CD73, AMP and 5% DMSO served as high control. 16 wells containing AMP and 5% DMSO served as low control. Enzymatic reaction was stopped and AMP level was measured indirectly by adding 5 μL of CellTiter-Glo® 2.0 reagent and 5 μL of ATP with a final concentration of 1 μM. Following incubation of the plate at room temperature for 30 minutes, luminescent signal was read on a Tecan plate reader. The percentage inhibition at individual concentrations relative to high and low controls was calculated. The data were analyzed by using nonlinear regression to generate IC50 values.

human CD73 = target: T2, human CD73 (Homo sapiens, UniProt P21589); assay: Inhibitor activity against CD73 in cell based assay (CD73 expressing CHO-K1 cells); details: CHO-K1 cells expressing human CD73, 150 μM AMP, 4 hours of incubation; read-out: CHO-K1 CELL VARIANT: CD73 IC50
T2 construct: expressed in transfected cells
T2 sequence (P21589 27-549): T1 sequence (P21589 27-549)
Experimental: Determine Inhibitor Activity Against CD73 in Cell Based Assay
CD73 expressing CHO-K1 cell clones were generated upon stable transfection of a plasmid expressing human CD73 under the control of CMV promoter. Cells were selected in Ham's F-12K (Kaighn's) media supplemented with 10% fetal bovine serum and 1 mg/ml G418 at 37° C. in a humidified incubator supplied with 5% CO2. The assays were performed as follows. Cells were seeded in a 96 well plate in 50 μL of culture media at a density of 1×10^4 per well. Compound at a maximal concentration of 5 mM was serially diluted 1:3 in DMSO for a total of 8 point titration. A 2 μL aliquot of each dilution point was added to 248 μL culture media and 25 µL was added to each well, providing 10 μM compound at the maximum concentration point. AMP was diluted in culture media and 25 μL was added to each well with a final concentration of 150 μM. 4 wells containing 0.2% DMSO treated cells and AMP served as high controls and 4 wells containing media only with 0.2% DMSO and AMP served as low controls. After 4 hours of incubation, 20 μL of the supernatant was transferred to a 384 well plate. AMP level in supernatant was measured indirectly by adding 5 μL of CellTiter-Glo® 2.0 reagent and 5 μL of ATP with a final concentration of 1 μM. Following incubation of plate at room temperature for 30 minutes, luminescent signal was read on a Tecan plate reader. The percentage inhibition at individual concentrations relative to high and low controls was calculated. The data were analyzed by using nonlinear regression to generate IC50 values.

SMILES	IC50 [1] [µM]	IC50 (human CD73) [µM]
O=C(N[C@@H]1CCN(c2cn[nH]c(=O)c2Cl)C1)OC1CCCCC1 [P-0015, cyclohexyl (R)-(1-(5-chloro-6-oxo-1,6-dihydropyridazin-4-yl)pyrrolidin-3-yl)carbamate]	0.001 to 10	10 to 100
O=C(NC1CCCC1)O[C@@H]1CCN(c2cn[nH]c(=O)c2Cl)C1 [P-0017, (R)-1-(5-chloro-6-oxo-1,6-dihydropyridazin-4-yl)pyrrolidin-3-yl cyclopentylcarbamate]	0.001 to 10	0.001 to 10
O=C(NC1CCCCC1)O[C@@H]1CCN(c2cn[nH]c(=O)c2Cl)C1 [P-0018, (R)-1-(5-chloro-6-oxo-1,6-dihydropyridazin-4-yl)pyrrolidin-3-yl cyclohexylcarbamate]	0.001 to 10	0.001 to 10
O=C(NC1CCCC1)O[C@H]1CCN(c2cn[nH]c(=O)c2Cl)C1 [P-0020, (S)-1-(5-chloro-6-oxo-1,6-dihydropyridazin-4-yl)pyrrolidin-3-yl cyclopentylcarbamate]	0.001 to 10	10 to 100
O=C(NC1CCCCC1)O[C@H]1CCN(c2cn[nH]c(=O)c2Cl)C1 [P-0021, (S)-1-(5-chloro-6-oxo-1,6-dihydropyridazin-4-yl)pyrrolidin-3-yl cyclohexylcarbamate]	0.001 to 10	10 to 100
O=C(NC1CCC(F)(F)CC1)N[C@@H]1CCN(c2cn[nH]c(=O)c2Cl)C1 [P-0022, (R)-1-(1-(5-chloro-6-oxo-1,6-dihydropyridazin-4-yl)pyrrolidin-3-yl)-3-(4,4-difluorocyclohexyl)urea]	0.001 to 10	10 to 100
O=C(N[C@@H]1CCN(c2cn[nH]c(=O)c2Cl)C1)OC1CCCC1 [P-0030, cyclopentyl (R)-(1-(5-chloro-6-oxo-1,6-dihydropyridazin-4-yl)pyrrolidin-3-yl)carbamate]	0.001 to 10	10 to 100
O=C(NC1CCCCC1)N[C@@H]1CCN(c2cn[nH]c(=O)c2Cl)C1 [P-0039, (R)-1-(1-(5-chloro-6-oxo-1,6-dihydropyridazin-4-yl)pyrrolidin-3-yl)-3-cyclohexylurea]	0.001 to 10	0.001 to 10
O=C(NC1CCCC1)N[C@@H]1CCN(c2cn[nH]c(=O)c2Cl)C1 [P-0046, (R)-1-(1-(5-chloro-6-oxo-1,6-dihydropyridazin-4-yl)pyrrolidin-3-yl)-3-cyclopentylurea]	0.001 to 10	0.001 to 10
O=C(NC1CCN(C(=O)C(F)(F)F)CC1)N[C@@H]1CCN(c2cn[nH]c(=O)c2Cl)C1 [P-0047, (R)-1-(1-(5-chloro-6-oxo-1,6-dihydropyridazin-4-yl)pyrrolidin-3-yl)-3-(1-(2,2,2-trifluoroacetyl)piperidin-4-yl)urea]	0.001 to 10	10 to 100
CC(C)(C)OC(=O)N1CCC(NC(=O)N[C@@H]2CCN(c3cn[nH]c(=O)c3Cl)C2)CC1 [P-0051, tert-butyl (R)-4-(3-(1-(5-chloro-6-oxo-1,6-dihydropyridazin-4-yl)pyrrolidin-3-yl)ureido)piperidine-1-carboxylate]	0.001 to 10	10 to 100
CS(=O)(=O)N1CCC(NC(=O)N[C@@H]2CCN(c3cn[nH]c(=O)c3Cl)C2)C1 (stereo partly drawn) [P-0052, 1-((R)-1-(5-chloro-6-oxo-1,6-dihydropyridazin-4-yl)pyrrolidin-3-yl)-3-(1-(methylsulfonyl)pyrrolidin-3-yl)urea]	0.001 to 10	10 to 100
O=C(NC1CCS(=O)(=O)C1)N[C@@H]1CCN(c2cn[nH]c(=O)c2Cl)C1 (stereo partly drawn) [P-0054, 1-((R)-1-(5-chloro-6-oxo-1,6-dihydropyridazin-4-yl)pyrrolidin-3-yl)-3-(1,1-dioxidotetrahydrothiophen-3-yl)urea]	0.001 to 10	10 to 100
Cc1c(N2CC[C@@H](NC(=O)OC(C)(C)C)C2)cn[nH]c1=O [P-0056, tert-butyl (R)-(1-(5-methyl-6-oxo-1,6-dihydropyridazin-4-yl)pyrrolidin-3-yl)carbamate]	0.001 to 10	10 to 100
Cc1c(N2CC[C@@H](NC(=O)NC3CCCC3)C2)cn[nH]c1=O [P-0057, (R)-1-cyclopentyl-3-(1-(5-methyl-6-oxo-1,6-dihydropyridazin-4-yl)pyrrolidin-3-yl)urea]	0.001 to 10	10 to 100
Cc1c(N2CC[C@@H](NC(=O)NC3CCCC3)C2)cnn(C(=O)NC2CCCC2)c1=O [P-0058, (R)-N-cyclopentyl-4-(3-(3-cyclopentylureido)pyrrolidin-1-yl)-5-methyl-6-oxopyridazine-1(6H)-carboxamide]	0.001 to 10	10 to 100
Cc1c(N2CC[C@@H](NC(=O)NC3CCCCC3)C2)cn[nH]c1=O [P-0059, (R)-1-cyclohexyl-3-(1-(5-methyl-6-oxo-1,6-dihydropyridazin-4-yl)pyrrolidin-3-yl)urea]	0.001 to 10	10 to 100
C[C@H]1CN(c2cn[nH]c(=O)c2Cl)C[C@@H]1NC(=O)NC1CCCCC1 [P-0062, 1-((3R,4S)-1-(5-chloro-6-oxo-1,6-dihydropyridazin-4-yl)-4-methylpyrrolidin-3-yl)-3-cyclohexylurea]	0.001 to 10	10 to 100
C[C@H]1CN(c2cn[nH]c(=O)c2Cl)C[C@@H]1NC(=O)OC1CCCCC1 [P-0063, cyclohexyl ((3R,4S)-1-(5-chloro-6-oxo-1,6-dihydropyridazin-4-yl)-4-methylpyrrolidin-3-yl)carbamate]	0.001 to 10	10 to 100
N#Cc1c(N2CC[C@@H](NC(=O)NC3CCCC3)C2)cn[nH]c1=O [P-0064, (R)-1-(1-(5-cyano-6-oxo-1,6-dihydropyridazin-4-yl)pyrrolidin-3-yl)-3-cyclopentylurea]	0.001 to 10	10 to 100
N#Cc1c(N2CC[C@@H](NC(=O)NC3CCCCC3)C2)cn[nH]c1=O [P-0065, (R)-1-(1-(5-cyano-6-oxo-1,6-dihydropyridazin-4-yl)pyrrolidin-3-yl)-3-cyclohexylurea]	0.001 to 10	0.001 to 10
CN(C(=O)OC1CCCCC1)C1CCN(c2cn[nH]c(=O)c2Cl)C1 (centres unmarked) [P-0068, cyclohexyl (1-(5-chloro-6-oxo-1,6-dihydropyridazin-4-yl)pyrrolidin-3-yl)(methyl)carbamate]	0.001 to 10	10 to 100
N#CC1(NC(=O)OC2CCCCC2)CCN(c2cn[nH]c(=O)c2Cl)C1 (centres unmarked) [P-0074, cyclohexyl (1-(5-chloro-6-oxo-1,6-dihydropyridazin-4-yl)-3-cyanopyrrolidin-3-yl)carbamate]	0.001 to 10	10 to 100
CS(=O)(=O)N1CCC(NC(=O)N[C@@H]2CCN(c3cn[nH]c(=O)c3Cl)C2)CC1 [P-0076, (R)-1-(1-(5-chloro-6-oxo-1,6-dihydropyridazin-4-yl)pyrrolidin-3-yl)-3-(1-(methylsulfonyl)piperidin-4-yl)urea]	0.001 to 10	10 to 100
O=C(NC1CCCCC1)OC1CCN(c2cn[nH]c(=O)c2Cl)C1 (centres unmarked) [P-0077, 1-(5-chloro-6-oxo-1,6-dihydropyridazin-4-yl)pyrrolidin-3-yl cyclohexylcarbamate]	0.001 to 10	0.001 to 10

Source: patent publication US12509444B2, “Compounds and methods for CD73 modulation and indications therefor” (Plexxikon Inc., priority 2019, dated 2025)
